Data: patent US11214547B2, “Crystalline Eltrombopag monoethanolamine salt form D” (F.I.S.—FABBRICA ITALIANA SINTETICI S.P.A., priority 2018, dated 2022)

Legend:
[1] = Hygroscopicity study by DVS (Dynamic Vapour Sorption); assay type: physicochemical; details: 25° C.
Method: Hygroscopicity study was determined by DVS (Dynamic Vapour Sorption) with a Q5000 TA instrument. This is a gravimetric technique that measures how much water is absorbed or desorbed by a sample at different relative humidity (RH). At each RH, the sample mass must be allowed to reach gravimetric equilibrium (or surpassed time limit) before progressing to the next humidity level. Sorption and desorption isotherms were performed at 25° C. over a range of 0-95% RH. The samples gently milled were not previously dried but they were exposed to 0% RH until a stable weight was reached before starting the DVS cycle. This equilibration step allows possible adsorbed humidity to be eliminated.

[2] = Preliminary stability in water at RT (slurry, XRPD); assay type: physicochemical; details: XRPD at 1, 3, 6 and 24 h
Method: A preliminary test stability study in water at RT of 4 ETP monoethanolamine salt Forms was performed in order to observed possible crystalline transitions. A sample of each crystalline form was slurried in water at RT and periodically analysed by XRPD (1, 3, 6 and 24 h) in order to detect possible crystalline transformation.

[3] = Relative thermodynamic solubility in water at RT by HPLC; assay type: physicochemical; details: for Intensity test average: average of solubility tests #1 and #2, water; for Intensity test average / Solubility test #1 (area counts) / Solubility test #2 (area counts): RT; for Solubility test #1 (area counts) / Solubility test #2 (area counts): water, 24 h stirring, HPLC ETP peak area of saturated solution
Method: This suspension was stirred 24 h at RT in order to reach the equilibrium. Then, a sample was filtered and the resulting filtrate was analysed by HPLC by duplicate. The average peak area of ETP gave a relative value of the thermodynamic solubility of each form that can be compared with each other. The solids recovered after filtration were also analysed by XRPD to check that no crystalline phase transformation occurred during the slurring.
The following HPLC conditions were used to determine the relative solubility (due to their short analysis time and good response): • Column: C18 Zorbax Eclipse (XDB), 150×4.6 mm, 5 μm • Sample concentration: Saturated water solution of the ETP monoethanolamine salt • Mobile phase: ACN:MeOH:H2O (55:35:10) at pH=6.0+/−0.2 • Temperature: 27° C. • Flow rate: 1 mL/min • UV detector wavelength: 230 nm • Injection: 5 μL • Run time: 10 min
HPLC ETP peak area in each of the different forms analysed was measured in order to establish their relative solubility. The HPLC analyses were performed by duplicate for each ETP monoethanolamine salt.

[4] = cited from earlier work
[5] = Crystalline stability of Form D under accelerated ICH guideline conditions (XRPD); assay type: physicochemical
Text: […] […] This sample was periodically analysed by XRPD in order to observe possible crystalline transformation or amorphization. Moreover, a sample of ETP monoethanolamine salt Form D stored on a XRPD silicon holder was exposed in a climatic chamber. It is worth noting that these stability conditions are harsher than standard stability conditions due to the high surface of exposition of the solid stored on the XRPD silicon holder. The samples were periodically analysed by XRPD to observe possible crystalline transformation.

Structure (SMILES) | humidity adsorbed (water uptake) ([1]; at 95% RH) [%] | crystalline stability slurried in water [2] | Intensity test average [3] | Solubility test #1 (area counts) [3] [area counts] | Solubility test #2 (area counts) [3] [area counts] | thermally stable up to ([4]; at higher temperature endothermic reaction associated with degradation) | solubility in water [4] | hygroscopicity ([1]; 0-95% RH) | relative solubility in water ([3]; water at RT, ranking among the 4 forms) | crystalline transformation by XRPD ([5]; 14 weeks study period) | time the crystalline form remains stable ([5]; climate chamber-75±5% RH, on XRPD sample holder)
CC1=NN(c2ccc(C)c(C)c2)C(=O)/C1=N\Nc1cccc(-c2cccc(C(=O)O)c2)c1O.NCCO [Form H2] | 0.6 | remained stable 24 h | 2867 | 3068 | 2665 |  |  |  |  |  | 
CC1=NN(c2ccc(C)c(C)c2)C(=O)/C1=N\Nc1cccc(-c2cccc(C(=O)O)c2)c1O [Eltrombopag olamine] |  |  |  |  |  | about 125 °C | sparingly soluble in water |  |  |  | 
CC1=NN(c2ccc(C)c(C)c2)C(=O)/C1=N\Nc1cccc(-c2cccc(C(=O)O)c2)c1O [Form D1] |  | remained stable 24 h | 2911 | 2722 | 3100 |  |  |  |  |  | 
CC1=NN(c2ccc(C)c(C)c2)C(=O)/C1=N\Nc1cccc(-c2cccc(C(=O)O)c2)c1O [Form D] |  | remained stable 24 h | 8066 | 7930 | 8201 |  |  | not hygroscopic up to 85% RH | most soluble form in water at RT | polymorphic transition, hydrate formation or amorphization was not observed | at least 14 weeks
